# Reference: patent US12383526B2, “Optimized sigma-1 agonist method of responder selection and treatment” (ANAVEX LIFE SCIENCES CORP., priority 2018, dated 2025)
# Marks after values point to notes of the source that are not given here.
# Assays:
# [1] = tested on: subjects with mild-to-moderate AD; assay: MMSE (Mini Mental State Examination) change from baseline, 57-week Phase 2a study and 208-week extension study; assay type: in vivo, human; conditions: for MMSE Cohen's d: week 57, compared to standard of care
# Excerpt: The present study integrates and analyzes data and samples from two consecutive clinical trials: 57-week study and 208-week study. 57-week study was a multicenter Phase 2a clinical trial of the drug ANAVEX2-73 that recruited a sample of 32 subjects with mild-to-moderate AD. It consisted of two parts: Part A was a simple randomized, open-label, two-period, cross-over, adaptive trial lasting up to 5 weeks. Each period involved one specific administration route and two possible dose levels: in one period the oral dose (30 mg or 50 mg) was administrated and in the other period an intravenous (IV) form (3 mg or 5 mg) was administered, making a total of 8 possible dose administration schemes in Part A (details available in FIG. 2A). The two periods were separated by a wash-out period of 12 days where no dose was given.
# (§1) Part B, following immediately after Part A, was an open-label extension of the oral daily dose for an additional 52 weeks. The primary endpoint of 57-week study was to establish the safety and tolerability of the drug. Secondary endpoints aimed at establishing the relationship between dosing regimen and pharmacodynamics-exploratory efficacy outcomes of cognition and function. Cognition was assessed by the Mini Mental State Examination (MMSE), while functional abilities by the Alzheimer's Disease Co-operative Study—Activities of Daily Living Inventory (ADCS-ADL). Additional cognitive measures included the Cogstate Brief Battery (CBB), and functional measures of Electroencephalography and Event-Related Potential (EEG and ERP). Part B continued an adaptive oral administration scheme. Table 12 summarizes mean oral dose administration during the 57-week study study.
# Due to favorable safety and tolerability profile of the 57-week study (Table 2), and in response to requests from patients and caregivers, a 208-week open-label extension study (208-week study) was carried out immediately after completion of 57-week study Part B. 208-week study enrolled the 24 subjects who completed Part B and applied similarly an adaptive daily oral administration scheme. ANAVEX2-73-003 involves continuous evaluation of safety and efficacy as measured by the MMSE and ADCS-ADL. At week 148 (interim time point for analyses), data on the subjects remaining in the study (n=21) was analyzed for efficacy outcomes. This report was drafted using data available at week 148, while ANAVEX2-73-003 is still ongoing.
# Exploratory clinical efficacy in this study was defined as change from baseline of each patient's cognitive (MMSE) and functional ability (ADCS-ADL) scores. The MMSE57 is a widely used, validated instrument in clinical AD research, including as a cognitive outcome measure in drug trials. The range of the scale is from 0 to 30, with a higher score indicating higher cognitive function. The ADCS-ADL58 is undertaken in a structured caregiver interview format and assesses performance in activities of daily living of patients with AD. The scale is from 0 to 78, with a higher score indicating greater function. The ADCS-ADL has shown to have good test-retest reliability 59. The MMSE and the ADCS-ADL were assessed during pre-specified clinical site visits across 14 different time points during the 57-week study (Weeks 0 and 5 in Part A; Weeks 17, 31, 41, 53, and 57 in Part B), and 208-week study (Weeks 70, 83, 96, 109, 122, 135, and 148) studies.
# Corresponding Delta scores were calculated using the difference between values at each visit and at baseline for each individual patient, with a focus on Week 57. In addition, to lower the impact of noise in MMSE and ADCS-ADL scores, a Slope was estimated using a linear regression across all available time points for each individual patient. The derived scores describe the progression of exploratory efficacy data from baseline at several specific time points (Deltas) and over a set period of time (Slope). […]
# [2] = Safety and tolerability, 57-week study; assay type: in vivo, human
# Procedure: as §1, with “study. Safety was evaluated by assessment of incidence and severity of adverse events, vital signs, physical examination, clinical laboratory parameters (hematology, serum chemistry and urinalysis), and electrocardiogram (data not shown).” for “study.”
# [3] = tested on: Alzheimer's disease / dementia patients; assay: Sigma-1 agonist responder determination and therapy, single-patient examples 6-13; assay type: in vivo, human; conditions: 6 months
# Procedure: A person presents with diagnosed Alzheimer's disease. Their SIGMAR1 gene is analyzed to the extent that it is determined that they carry glutamine at the 2 position of the SIGMAR1 gene. This is the wildtype. They are treated with A2-73 daily with a 30 mg oral dose. For 6 months.
# A person presents with diagnosed Alzheimer's disease. A cheek swab is taken and a genotype assay is performed to determine the presence of the SIGMAR1 2P genotype. By such analysis it is determined that the subject carries glutamine at the 2 position of the SigmaR1 gene receptor (protein). They are treated with ANAVEX2-73 daily with a 30 mg oral dose. For 6 months.
# A person presents with diagnosed dementia. Their SIGMAR1 gene is analyzed to the extent that it is determined that they carry proline at the 2 position of the SIGMAR1 gene. They are treated with ANAVEX2-73 daily with a 80 mg oral dose in combination with 1.5 mg oral rivastigmine twice per day for 6 months.
# A person presents with diagnosed Alzheimer's disease. […] They are treated with the A2-73 daily with a 30 mg oral dose. For 6 months.
# A person presents with diagnosed Alzheimer's disease. […] They are treated with A2-73 daily with a 30 mg oral dose. For 6 months.
# A person presents with diagnosed dementia. They carry glutamine at the 2 position of the SIGMAR1 gene. It is determined that they carry the KANSL1_p.P1010L/P304L/P946L mutation. They are treated with ANAVEX2-73 daily with a 70 mg oral dose in combination with 7 mg oral memantine daily for 6 months.
# [4] = Phase 1 study; 1-60 mg range; male healthy subjects; cited from earlier work
# [5] = Absence of COMT_L146fs variant & Baseline MMSE ≥20, N 11
# [6] = Absence of COMT_L146fs variant, N 16
# [7] = Absence of SIGMAR1_Q2P variant, N 16
# [8] = Absence of SIGNAR1_Q2P variant & Baseline MMSE ≥20, N 11
structure (smiles),measurement,setting,value
"CN(C)CC1CCOC1(c1ccccc1)c1ccccc1.Cl (stereo not shown) [ANAVEX2-73, tetrahydro-N,N-dimethyl-2,2-diphenyl-3-furanmethanamine hydrochloride]",MMSE Mean Δ at 57 weeks,[1]; [5],0.18 ± 4.35
same,MMSE Mean Δ at 57 weeks,[1]; [6],−0.62 ± 4.05
same,MMSE Mean Δ at 57 weeks,"[1]; Absence of SIGMAR1_Q2P variant & Absence of COMT_L145fs variant & Baseline MMSE ≥20, N 10",0.50 ± 4.45
same,MMSE Mean Δ at 57 weeks,[1]; [7],−0.62 ± 4.11
same,MMSE Mean Δ at 57 weeks,[1]; [8],0.27 ± 4.29
same,MMSE Mean Δ at 57 weeks,"[1]; All, N 21",−1.52 ± 4.15
same,MMSE Mean Δ at 57 weeks,"[1]; Baseline MMSE ≥20, N 13",−0.15 ± 4.06
same,"favorable difference in adjusted MMSE, higher concentration arm compared with low/medium arm","[1]; MMRM-LME, over 148 weeks",78%
same,MMSE Cohen's d,[1]; [5],0.98**
same,MMSE Cohen's d,[1]; [6],0.81**
same,MMSE Cohen's d,[1]; [7],0.81**
same,MMSE Cohen's d,[1]; [8],1.01**
same,MMSE Cohen's d,"[1]; Baseline MMSE ≥20, N 13",0.94**
same,primary endpoint of safety and tolerability,"[2]; 57-week Phase 2a AD study, 32 patients with mild to moderate AD",met its primary endpoint of safety and tolerability
same,patients discontinued due to an Adverse Event (AE),"[2]; 57-week study, seven patients discontinued in total",one
same,disease course,"[3]; Example 6: person, Alzheimer's disease, glutamine at the 2 position of SIGMAR1, 30 mg oral daily",stable and not progress
same,disease course,"[3]; Example 7: person, Alzheimer's disease, glutamine at the 2 position (cheek swab genotype assay), 30 mg oral daily",stable and not progress
same,disease course,"[3]; Example 9: person, dementia, proline at the 2 position of SIGMAR1, 80 mg oral daily in combination with 1.5 mg oral rivastigmine twice per day",stable and not progress
same,disease course,"[3]; Example 10: person, Alzheimer's disease, no COMT rs113895332/rs61143203 mutation, 30 mg oral daily",stable and not progress
same,disease course,"[3]; Example 11: person, Alzheimer's disease, no SIGMAR1 rs1800866, 30 mg oral daily",stable and not progress
same,disease course,"[3]; Example 13: person, dementia, glutamine at the 2 position, KANSL1_p.P1010L/P304L/P946L mutation, 70 mg oral daily in combination with 7 mg oral memantine daily",stable and not progress
same,relationship between dose and plasma concentration,[4],linear
